Consider ten compounds from patent publication US9751869B2, “LXR modulators” (BRISTOL-MYERS SQUIBB COMPANY, priority 2013, dated 2017).

In the assay the target is T1, LXRβ (Homo sapiens, UniProt P55055).
T1 construct: Co-transfection expression plasmids, comprising full-length LXRα (pCMX-h LXRα or LXRβ (pCMX-hLXRβ)); expressed in transfected cells; host or cells: CV-1 African green monkey kidney cells, transient transfection with pCMX-hLXRβ
T1 sequence (P55055 1-460): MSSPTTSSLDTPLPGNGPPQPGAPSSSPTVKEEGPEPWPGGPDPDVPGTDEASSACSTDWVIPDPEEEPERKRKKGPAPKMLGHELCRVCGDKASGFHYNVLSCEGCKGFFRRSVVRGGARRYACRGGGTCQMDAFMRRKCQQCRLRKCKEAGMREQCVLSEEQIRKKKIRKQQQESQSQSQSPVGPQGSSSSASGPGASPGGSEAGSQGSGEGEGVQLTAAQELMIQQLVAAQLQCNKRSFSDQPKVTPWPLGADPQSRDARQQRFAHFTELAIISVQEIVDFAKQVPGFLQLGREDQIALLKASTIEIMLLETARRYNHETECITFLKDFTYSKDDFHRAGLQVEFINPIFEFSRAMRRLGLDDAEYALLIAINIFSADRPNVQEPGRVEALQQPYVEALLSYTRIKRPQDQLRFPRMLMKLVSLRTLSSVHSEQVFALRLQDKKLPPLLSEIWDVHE
T1 sequence (P19793 1-462 partner): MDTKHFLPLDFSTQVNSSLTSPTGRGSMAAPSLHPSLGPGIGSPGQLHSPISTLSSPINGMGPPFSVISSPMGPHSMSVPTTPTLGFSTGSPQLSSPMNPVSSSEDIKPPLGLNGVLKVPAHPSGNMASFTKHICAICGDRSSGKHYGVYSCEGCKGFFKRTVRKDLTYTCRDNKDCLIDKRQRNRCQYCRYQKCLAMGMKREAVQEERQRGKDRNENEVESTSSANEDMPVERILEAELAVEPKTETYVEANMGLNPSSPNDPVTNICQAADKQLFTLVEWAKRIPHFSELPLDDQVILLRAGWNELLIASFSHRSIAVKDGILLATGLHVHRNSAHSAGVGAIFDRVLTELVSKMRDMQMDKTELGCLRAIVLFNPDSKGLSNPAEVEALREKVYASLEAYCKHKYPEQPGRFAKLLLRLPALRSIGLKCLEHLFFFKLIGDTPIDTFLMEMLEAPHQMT
Kind of assay: LXR/LXRE co-transfection assay (luciferase reporter) in CV-1 cells, LXRβ. To be noted: for EC50: CV-1 cells transfected with pCMX-hLXRβ and LXREx1-Tk-Luciferase, 20 hours incubation, read-out: LXRbeta agonism EC50; for Emax: CV-1 cells, relative to maximum response of high control N-(3-((4-fluorophenyl)-(naphthalene-2-sulfonyl)amino)propyl)-2,2-dimethylpropionamide, read-out: LXRbeta % EFFICACY
It is filed as cell-based. The source says: To measure the ability of compounds to activate or inhibit the transcriptional activity of LXR in a cell based assay, the co-transfection assay was used. It has been shown that LXR functions as a heterodimer with RXR. For the co-transfection assay, expression plasmids for LXRα and LXRβ are introduced separately via transient transfection into mammalian cells along with a luciferase reporter plasmid that contains one copy of a DNA sequence that is bound by LXR-RXR heterodimers (LXRE; Willy, P. et. al. 1995). LXRs heterodimerize with the endogenous RXR. Treatment of transfected cells with an LXR agonist increases the transcriptional activity of LXR, which is measured by an increase in luciferase activity.
Co-transfection expression plasmids, comprising full-length LXRα (pCMX-h LXRα or LXRβ (pCMX-hLXRβ), reporter plasmid (LXREx1-Tk-Luciferase), and control (pCMX-Galactosidase expression vector) (Willey et al. Genes & Development 9 1033-1045 (1995)).
CV-1 cells were prepared 24 hours prior to the experiment by plating them into T-175 flasks or 500 cm^2 dishes in order to achieve 70-80% confluency on the day of the transfection. The number of cells to be transfected was determined by the number of plates to be screened. Each well of a 384 well plate requires 1.5×10^4 cells. DNA Transfection Reagent was prepared by mixing the required plasmid DNAs with a cationic lipid transfection reagent Transit 2020 (Mirus Bio) for CV1 by following the instructions provided with the reagents. Optimal DNA amounts were determined empirically per cell line and size of vessel to be transfected. For each T175 cm^2 flask a total of 44.4 ug for CV1 of DNA, 133 ul Transit2020 and 4.5 ml DMEM for CV1 was mixed and added. Cells were then incubated at least 5 hours at 37° C. to prepare screening cells.
Assay plates were prepared by dispensing 5 μL of compound per well of a 384 well plate to achieve final compound concentration of 10 μM and no more than 0.5% DMSO. Media was removed from the screening cells, the cells trypsinized, harvested cells by centrifugation, counted, and plated at a density of approximately 1.5×10^4 cells in the 384 well assay plate prepared above in a volume of about 95 uL. Assay plates containing both compounds and screening cells (100 μL in total volume) were incubated for 20 hours at 37° C.
After incubation with compounds, media was removed from the cells and luciferase assay reagent (30 μL/well) added. After ˜2 minutes at ambient temperature, the assay plates were read on a luminometer (PE Biosystems Northstar reader with on-board injectors, or Envision (Perkin Elmer) or equivalent).
The LXR/LXRE co-transfection assay can be used to establish the EC50/IC50 values for potency and percent activity or inhibition for efficacy. Efficacy defines the activity of a compound relative to a high control ((N-(3-((4-fluorophenyl)-(naphthalene-2-sulfonyl)amino)propyl)-2,2-dimethylpropionamide)) or a low control (DMSO/vehicle). The dose response curves are generated from a 10 point curve with concentrations differing by ½ LOG units. Each point represents the average of 4 wells of data from a 384 well plate.
The data from this assay is fitted to the following equation, from which the EC50 value may be solved: Y=Bottom+(Top−Bottom)/(1+10^((log EC50-X)*HillSlope)).
The EC50/IC50 is therefore defined as the concentration at which an agonist or antagonist elicits a response that is halfway between the Top (maximum) and Bottom (baseline) values. The EC50/IC50 values represented are the averages of at least 2 and normally 3 independent experiments. The determination of the relative efficacy or % control for an agonist is by comparison to the maximum response achieved by ((N-(3-((4-fluorophenyl)-(naphthalene-2-sulfonyl)-amino)propyl)-2,2-dimethylpropionamide) that is measured individually in each dose response experiment.
Table 1 lists LXRβ EC50 values and % efficacy measurements in the cotransfection assay for examples of this invention.
For orientation: A reporter such as luciferase makes a cellular process visible.

By EC50 is commonly meant the midpoint of the concentration-response curve. Regarding `Cn1nc(C(F)(F)F)cc1-c1ccc(-c2cccc(C(C)(C)C(N)=O)c2)cc1-n1nncc1-c1ccc(OC(F)(F)F)cc1` [Example 12], the EC50 was found to be 74 nM and the Emax stood at 81%.

For the compound `Cn1nc(C(F)(F)F)cc1-c1ccc(-c2cc(Cl)c(CO)c(S(C)(=O)=O)c2)cc1-n1nncc1-c1ccc(OC(F)(F)F)cc1` [Example 13], the EC50 was 45 nM and the Emax is 83%.

On to `Cn1nc(C(F)(F)F)cc1-c1ccc(-c2cccc(S(C)(=O)=O)c2)cc1-n1nncc1-c1ccc(OC(F)(F)F)cc1` [Example 14, 1-{3′-(methylsulfonyl)-4-[1-methyl-3-(trifluoromethyl)-1H-pyrazol-5-yl]biphenyl-3-yl}-5-{4-[(trifluoromethyl)oxy]phenyl}-1H-1,2,3-triazole], for which the EC50 was found to be 32 nM and the Emax stood at 99%.

As to `Cn1nc(C(F)(F)F)cc1-c1ccc(-c2cc(F)c(CO)c(S(C)(=O)=O)c2)cc1-n1nncc1-c1ccc(OC(F)(F)F)cc1` [Example 15, (3-fluoro-4′-(1-methyl-3-(trifluoromethyl)-1H-pyrazol-5-yl)-5-(methylsulfonyl)-3′-(5-(4-(trifluoromethoxy)phenyl)-1H-1,2,3-triazol-1-yl)biphenyl-4-yl)methanol], the concentration for a half-maximal effect (EC50) was determined as 11 nM and the Emax worked out at 95%.

Consider `COCC(F)(F)c1cc(-c2ccc(-c3cccc(S(C)(=O)=O)c3)cc2-n2nncc2-c2ccc(OC(F)(F)F)cc2)n(C)n1` [Example 16, 1-[4-{3-[1,1-difluoro-2-(methyloxy)ethyl]-1-methyl-1H-pyrazol-5-yl}-3′-(methylsulfonyl)biphenyl-3-yl]-5-{4-[(trifluoromethyl)oxy]phenyl}-1H-1,2,3-triazole], for which the EC50 came out at 163 nM and the Emax was 89%.

For the compound `COCC(F)(F)c1cc(-c2ccc(-c3cc(F)c(CO)c(S(C)(=O)=O)c3)cc2-n2nncc2-c2ccc(OC(F)(F)F)cc2)n(C)n1` [Example 17, [4′-{3-[1,1-difluoro-2-(methyloxy)ethyl]-1-methyl-1H-pyrazol-5-yl}-3-fluoro-5-(methylsulfonyl)-3′-(5-{4-[(trifluoromethyl)oxy]phenyl}-1H-1,2,3-triazol-1-yl)biphenyl-4-yl]methanol], the EC50 worked out at 61 nM and the Emax is 96%.

Turning to `Cn1nc(C(C)(F)F)cc1-c1ccc(-c2cccc(S(C)(=O)=O)c2)cc1-n1nncc1-c1ccc(OC(F)(F)F)cc1` [Example 18, 1-{4-[3-(1,1-difluoroethyl)-1-methyl-1H-pyrazol-5-yl]-3′-(methylsulfonyl)biphenyl-3-yl}-5-{4-[(trifluoromethyl)oxy]phenyl}-1H-1,2,3-triazole], the EC50 was 57 nM and the Emax amounted to 87%.

Turning to `CN(C)S(=O)(=O)c1cccc(-c2ccc(-c3cc(C(C)(F)F)nn3C)c(-n3nncc3-c3ccc(OC(F)(F)F)cc3)c2)c1` [Example 19, 4′-[3-(1,1-difluoroethyl)-1-methyl-1H-pyrazol-5-yl]-N,N-dimethyl-3′-(5-{4-[(trifluoromethyl)oxy]phenyl}-1H-1,2,3-triazol-1-yl)biphenyl-3-sulfonamide], the 50% effective concentration (EC50) amounted to 91 nM and the Emax turned out to be 79%.

As for `CNS(=O)(=O)c1cccc(-c2ccc(-c3cc(C(C)(F)F)nn3C)c(-n3nncc3-c3ccc(OC(F)(F)F)cc3)c2)c1` [Example 20, 4′-[3-(1,1-difluoroethyl)-1-methyl-1H-pyrazol-5-yl]-N-methyl-3′-(5-{4-[(trifluoromethyl)oxy]phenyl}-1H-1,2,3-triazol-1-yl)biphenyl-3-sulfonamide], the EC50 is 38 nM and the Emax came out at 86%.

As to `Cn1nc(C(C)(F)F)cc1-c1ccc(-c2cc(F)c(CO)c(S(C)(=O)=O)c2)cc1-n1nncc1-c1ccc(OC(F)(F)F)cc1` [Example 21, {4′-[3-(1,1-difluoroethyl)-1-methyl-1H-pyrazol-5-yl]-3-fluoro-5-(methylsulfonyl)-3′-(5-{4-[(trifluoromethyl)oxy]phenyl}-1H-1,2,3-triazol-1-yl)biphenyl-4-yl}methanol], the EC50 was determined as 22 nM and the Emax is 82%.
